From ChEMBL document CHEMBL5608168, “An overview of PROTACs targeting MDM2 as a novel approach for cancer therapy” (Eur J Med Chem, 2024) come the findings set out here.

Data set [1] has as its system A549. In words: Induction of apoptosis in human A549 cells assessed as apoptotic rate at 5 uM incubated for 24 hrs by Annexin V-FITC staining based flow cytometry relative to control. It is filed as functional. (A flow cytometer gives signals particle by particle.)
Data set [2] is described as follows: Metabolic stability in mouse liver microsomes assessed as half life. It is filed as ADME, Microsome. In general terms: Liver microsomes are a subcellular fraction often used to study metabolism.
A short description of data set [3]: Antiproliferative activity against human Triple-negative breast cancer cell. It is filed as functional, cell-based. The note with it: Breast carcinoma cell.
Data set [4] relates to A549. In words: Anticancer activity against human A549 cells assessed as reduction in cell growth incubated for 72 hrs by CCK-8 assay. Format: functional, cell-based. The note with it: A549, 72 h. Background: Tetrazolium assays rely on reduction of a dye to a coloured formazan, in cell work by metabolically active cells.
Data set [5] is described as follows: Terminal half life in Sprague-Dawley rat at 2 mg/kg, iv by LC-MS/MS analysis. It is filed as ADME, organism-based. The settings on record: in vivo.
In data set [6] the test system is A549. In words: Antitumor activity against human A549 cells xenografted in BALB/c nude mouse assessed as tumor growth inhibition at 30 mg/kg, ip administered twice daily for 21 days relative to control. The note with it: A549, 504 h, time 21 day, read-out: TGI. It is filed as functional.
A further data set deals with MOLM-13. In words: Antiproliferative activity against human MOLM-13 assessed as reduction in cell viability. Format: functional, cell-based.
Data set [7] can be described thus: Antiproliferative activity against human derived Acute myeloid leukemic cells assessed as reduction in cell viability incubated for 48 hr by CellTiter-Glo assay. Format: functional, cell-based. The note with it: Leukemia cell.
The target of data set [8] is E3 ubiquitin-protein ligase Mdm2 (Homo sapiens, UniProt Q00987). The experiment in a line: Homo-PROTAC activity at MDM2 in human A549 cells assessed as self ubiquitination mediated protein degradation by Western Blot analysis. Format: cell-based.
Chain of E3 ubiquitin-protein ligase Mdm2 (Q00987 whole entry): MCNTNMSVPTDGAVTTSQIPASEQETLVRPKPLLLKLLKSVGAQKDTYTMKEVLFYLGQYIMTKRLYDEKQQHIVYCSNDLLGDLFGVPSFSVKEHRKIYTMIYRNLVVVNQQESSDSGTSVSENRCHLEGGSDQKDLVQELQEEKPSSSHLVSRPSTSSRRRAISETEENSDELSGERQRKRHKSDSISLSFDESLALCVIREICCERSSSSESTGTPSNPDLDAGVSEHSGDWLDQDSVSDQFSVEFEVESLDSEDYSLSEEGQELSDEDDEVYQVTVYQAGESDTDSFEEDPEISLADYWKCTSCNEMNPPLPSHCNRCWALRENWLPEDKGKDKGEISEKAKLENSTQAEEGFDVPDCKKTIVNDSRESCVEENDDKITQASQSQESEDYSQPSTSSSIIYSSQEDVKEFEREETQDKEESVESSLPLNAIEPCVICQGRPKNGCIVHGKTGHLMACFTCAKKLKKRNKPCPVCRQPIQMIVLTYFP

Take `C[C@H]1[C@H](C)CC[C@]2(C(=O)NCCOCCOCCOCCNc3cccc4c3C(=O)N(C3CCC(=O)NC3=O)C4=O)CC[C@]3(C)C(=CC[C@@H]4[C@@]5(C)CC[C@H](O)C(C)(C)[C@@H]5CC[C@]43C)[C@H]12` (some centres undefined): the Activity in the data set on A549 [1] was determined as 26.74%.

`CCOc1cc(C(C)(C)C)ccc1C1=N[C@@](C)(c2ccc(Cl)cc2)[C@@](C)(c2ccc(Cl)cc2)N1C(=O)N1CCN(CC(=O)NCCOCCOCCOCC(=O)N[C@H](C(=O)N2C[C@H](O)C[C@H]2C(=O)NCc2ccc(-c3scnc3C)cc2)C(C)(C)C)CC1`: the half-life (usually the time in which the quantity being followed falls by half) in data set [2] turned out to be 25.9 min. In addition, in data set [3], the IC50 (usually the concentration needed to halve the response being measured) came to 4 µM.

As to `CCOc1cc(C(C)(C)C)ccc1C1=N[C@@H](c2ccc(Cl)cc2)[C@@H](c2ccc(Cl)cc2)N1C(=O)N1CCN(CC(=O)NCCOCCOCCOCCNC(=O)CN2CCN(C(=O)N3C(c4ccc(C(C)(C)C)cc4OCC)=N[C@@H](c4ccc(Cl)cc4)[C@H]3c3ccc(Cl)cc3)CC2=O)C(=O)C1`, the IC50 in the data set with A549 [4] was 580 nM. Also, the “beta t1/2” value in data set [5] amounted to 9.6 h. For the same molecule, in the data set with A549 [6], the inhibition in vivo at 30 mg/kg is 52.4%.

As to `Cc1ncsc1-c1ccc(CNC(=O)[C@@H]2C[C@@H](O)CN2C(=O)[C@@H](NC(=O)CCCCCCCCC(=O)N2CCN(S(=O)(=O)C[C@@H](N3C(=O)[C@@](C)(CC(=O)O)C[C@H](c4cccc(Cl)c4)[C@H]3c3ccc(Cl)cc3)C(C)(C)C)CC2)C(C)(C)C)cc1`, the figures for the IC50 (in the data set on MOLM-13; in data set [7]) were 50 nM and 40 nM, respectively.

`CCOc1cc(C(C)(C)C)ccc1C1=NC(c2ccc(Cl)cc2)C(c2ccc(Cl)cc2)N1C(=O)N1CCN(CC(=O)NCCOCCOCCOCCNC(=O)CN2CCN(C(=O)N3C(c4ccc(C(C)(C)C)cc4OCC)=NC(c4ccc(Cl)cc4)C3c3ccc(Cl)cc3)CC2=O)C(=O)C1` (racemic): the DC50 (in general, the midpoint of the concentration-degradation curve) in data set [8] was 1010 nM.
